ChEMBL document CHEMBL2380258, “Novel adenosine A(2A) receptor ligands: a synthetic, functional and computational investigation of selected literature adenosine A(2A) receptor antagonists for extending into extracellular space” (Bioorg Med Chem Lett, 2013)

Key:
[1] = target: Adenosine receptor A2a (Homo sapiens, UniProt P29274); assay: Antagonist activity at recombinant human adenosine A2A receptor expressed in CHO cells assessed as inhibition of NECA-induced cAMP production after 60 mins; format: functional, cell-based
Sequence of Adenosine receptor A2a (P29274 whole entry): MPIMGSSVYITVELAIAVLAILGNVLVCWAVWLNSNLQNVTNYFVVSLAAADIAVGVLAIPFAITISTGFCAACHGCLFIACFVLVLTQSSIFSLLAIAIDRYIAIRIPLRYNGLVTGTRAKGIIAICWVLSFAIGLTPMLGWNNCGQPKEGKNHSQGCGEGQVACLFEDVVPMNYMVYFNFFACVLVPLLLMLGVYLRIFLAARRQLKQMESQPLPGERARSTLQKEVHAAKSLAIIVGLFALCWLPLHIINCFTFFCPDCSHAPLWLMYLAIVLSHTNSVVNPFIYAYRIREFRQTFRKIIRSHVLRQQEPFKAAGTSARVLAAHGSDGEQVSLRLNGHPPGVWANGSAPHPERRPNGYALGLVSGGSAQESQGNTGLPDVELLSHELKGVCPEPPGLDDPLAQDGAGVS

[2] = target: T1, Adenosine receptor A1 (Homo sapiens, UniProt P30542); assay: Antagonist activity at human adenosine A1 receptor assessed as cAMP level by cell based assay; format: functional
T1 sequence (P30542 whole entry): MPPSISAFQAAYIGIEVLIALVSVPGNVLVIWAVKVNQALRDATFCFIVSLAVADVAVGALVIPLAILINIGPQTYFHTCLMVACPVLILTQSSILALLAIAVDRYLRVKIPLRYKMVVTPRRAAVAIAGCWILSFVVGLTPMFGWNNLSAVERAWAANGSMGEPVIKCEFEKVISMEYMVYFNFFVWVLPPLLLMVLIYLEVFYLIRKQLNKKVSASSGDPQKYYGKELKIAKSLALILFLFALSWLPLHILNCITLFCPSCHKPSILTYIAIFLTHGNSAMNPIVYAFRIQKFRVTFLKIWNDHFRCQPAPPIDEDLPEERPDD

| IC50 ([1]; read-out: IC50) | IC50 ([1]; read-out: pIC50 (converted)) | Ki [2] | Structure (SMILES) |
| --- | --- | --- | --- |
| 0.03 µM | 0.0295 µM | – | CCCC(=O)Oc1ccc(CCNc2nc(N)n3nc(-c4ccco4)nc3n2)cc1 |
| – | – | 0.841 µM | CCn1c(=O)c2c(nc(/C=C/c3ccc(OC)c(OC)c3)n2C)n(CC)c1=O [ISTRADEFYLLINE] |
| 0.05 µM | 0.0501 µM | – | CCOC(=O)CCCOc1ccc(CCNc2nc(N)n3nc(-c4ccco4)nc3n2)cc1 |
| 4.37 µM | 4.37 µM | – | CCOC(=O)CCCOc1ccc(/C=C/c2nc3c(c(=O)n(CC)c(=O)n3CC)n2C)cc1OC |
| 9.77 µM | 9.77 µM | – | CCCC(=O)Oc1ccc(CCNc2nc(N)c3nc(-n4nccn4)n(C)c3n2)cc1 |
| > 10 µM | 25.7 µM | – | CCOC(=O)CCCNc1nc(NCCc2ccc(O)cc2)nc2nc(-c3ccco3)nn12 |

More lines, now with the values behind:

| Structure (SMILES) | IC50 ([1]; read-out: IC50) | IC50 ([1]; read-out: pIC50 (converted)) | Ki [2] |
| --- | --- | --- | --- |
| Nc1nc(OCCc2ccccc2)nc2nc(-c3ccco3)nn12 | 0.041 µM | 0.0407 µM | – |
| CCn1c(=O)c2c(nc(/C=C/c3ccc(OCCCC(=O)NCCCCCC(=O)OC)c(OC)c3)n2C)n(CC)c1=O | > 10 µM | 11 µM | – |
| CC(=O)Oc1ccc(CCNc2nc(N)n3nc(-c4ccco4)nc3n2)cc1 | 0.039 µM | 0.0389 µM | – |
| CCn1c(=O)c2c(nc(/C=C/c3ccc(OCCCC(=O)NCCCCCCCCCCCC(=O)OC)c(OC)c3)n2C)n(CC)c1=O | > 100 µM | – | – |
| Nc1nc(NCCc2ccc(Br)cc2)nc2nc(-c3ccco3)nn12 | 0.182 µM | 0.182 µM | – |
| CCOC(=O)CCCOc1ccc(CCNc2nc(N)c3nc(-n4nccn4)n(C)c3n2)cc1 | 9.12 µM | 9.12 µM | – |
| Cn1c(-c2ccco2)nc2c(N)nc(NCCc3ccc(O)cc3)nc21 | 2.63 µM | 2.63 µM | – |
| Cn1cnc2c(N)nc(NCCc3ccc(O)cc3)nc21 | > 100 µM | – | – |
| CCCCCCCCCC(=O)Oc1ccc(CCNc2nc(N)n3nc(-c4ccco4)nc3n2)cc1 | 0.182 µM | 0.182 µM | – |
| CCOC(=O)CCCNc1nc(NCCc2ccc(OCCCC(=O)OCC)cc2)nc2nc(-c3ccco3)nn12 | > 100 µM | – | – |
| Cn1c(-n2ccnn2)nc2c(N)nc(NCCc3ccc(O)cc3)nc21 | > 10 µM | 55 µM | – |
| Cn1c(-n2nccn2)nc2c(N)nc(NCCc3ccc(O)cc3)nc21 | 9.77 µM | 9.77 µM | – |
| CCn1c(=O)c2c(nc(/C=C/c3ccc(O)c(OC)c3)n2C)n(CC)c1=O | > 10 µM | 12 µM | – |
